In patent US10118947B2, “Modulation of structured polypeptide specificity” (BICYCLE THERAPEUTICS LIMITED, priority 2013, dated 2018):
Like-named read-outs stand apart in the source and are kept apart here. One block for each molecule: values may come before it. Numbered stars: 1 amine (or outer) side, 2 acyl side, 3 side chain; on linkers, the order of the positions; unused ones are H or OH. Bridge positions count the residues as written; N and C are the ends. Square brackets hold non-standard residues; d marks the D form. Peptide text beside a SMILES is read from it. Ala(2-furyl) = N[C@@H](Cc1ccco1)C(=O)O; TBMB = c1c(C[*:1])cc(C[*:3])cc1C[*:2]; X1 = O=C([C@H](Cn1cncn1)N[*:1])[*:2]; 2Pal = N[C@@H](Cc1ccccn1)C(=O)O; 3Pal = N[C@@H](Cc1cccnc1)C(=O)O; Chg = N[C@H](C(=O)O)C1CCCCC1; NMeS = CN[C@@H](CO)C(=O)O; Sar = CNCC(=O)O

Biological target: T1, human plasma Kallikrein (Homo sapiens, UniProt P03952)
T1 construct: purchased Stratech, UK
T1 sequence (P03952 20-638): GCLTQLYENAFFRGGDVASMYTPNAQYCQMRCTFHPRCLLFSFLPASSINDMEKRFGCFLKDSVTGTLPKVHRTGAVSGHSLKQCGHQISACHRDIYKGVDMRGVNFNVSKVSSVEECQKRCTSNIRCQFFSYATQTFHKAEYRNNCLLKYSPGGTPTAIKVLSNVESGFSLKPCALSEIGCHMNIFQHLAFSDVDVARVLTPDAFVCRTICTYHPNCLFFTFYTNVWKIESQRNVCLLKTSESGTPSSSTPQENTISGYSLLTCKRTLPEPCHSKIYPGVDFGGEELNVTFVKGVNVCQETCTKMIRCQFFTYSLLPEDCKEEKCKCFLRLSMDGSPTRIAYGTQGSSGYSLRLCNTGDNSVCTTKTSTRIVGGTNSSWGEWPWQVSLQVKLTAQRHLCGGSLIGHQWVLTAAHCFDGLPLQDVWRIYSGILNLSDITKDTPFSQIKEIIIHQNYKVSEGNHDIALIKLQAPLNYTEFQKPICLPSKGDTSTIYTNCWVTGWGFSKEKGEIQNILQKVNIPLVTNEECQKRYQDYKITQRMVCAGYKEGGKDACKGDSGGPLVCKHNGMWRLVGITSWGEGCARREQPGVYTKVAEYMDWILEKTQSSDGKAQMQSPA
Assay: Functional enzyme inhibition assay with fluorogenic substrate Z-PheArg-AMC, human plasma Kallikrein
Format: biochemical
Details: for F (Kivar/KiWT): ratio of Ki to wild type
Experimental: Functional enzyme assays were conducted in 10 mM Tris HCl, 150 mM NaCl, 10 mM MgCl2, 1 mM CaCl2) and 1 mg/mL BSA (all Sigma UK) pH7.4 at 25° C. in solid black 96 well plates. Briefly 26.5 pM human plasma Kallikrein (purchased from Stratech, UK) or 500 pM rat plasma Kallikrein (expressed and purified in house) were incubated in the absence or presence of increasing concentrations of test peptide for 15 minutes before addition of the fluorogenic substrate Z-PheArg-AMC (Enzo Lifesciences UK) to a final assay concentration of 100 μM in 4% DMSO. Release of AMC was measured using a Pherastar FS (BMG Labtech), excitation 360 nm, emission 460 nm. The rate of the linear phase of the reaction, typically 5 to 45 minutes, was calculated in MARS data analysis software (BMG labtech). The rate was then used to calculate the IC50 and Ki in Prism (GraphPad). A four parameter inhibition non-linear regression equation was used to calculate the IC50.
Peptides were dissolved as the TFA-salts in their powder form, and stock solutions were usually prepared in water. All solutions were centrifuged and filtered ([…] syringe filters) prior absorption measurement at 280 nm. […] For peptides containing non-natural amino acids with suspected chromophoric properties (i.e. NorHar, 4PhenylPro, 3Pal, 4Pal, Tic, 4GuanPhe, 4,4-BPAI, 3,3-DPA, 1NAI, 2NAI, 4BenzylPro, Ind) concentrations were determined by weighing the powder and dissolving the peptide in a defined quantity of water.

[1] = Table 3c, D-Alanine scan in Loop2, read-out: Ki
[2] = Table 24b, residue 7 modifications, read-out: Ki

Structure (SMILES): CC(C)C[C@@H]1NC(=O)[C@H](CC(=O)O)NC(=O)[C@H](CCC(N)=O)NC(=O)[C@H](Cc2c[nH]cn2)NC(=O)[C@H](C)NC(=O)[C@@H]2CSCc3cc(cc(c3)CSC[C@@H](C(=O)N[C@@H](C)C(N)=O)NC1=O)CSC[C@H](NC(=O)[C@H](C)N)C(=O)N[C@@H](C)C(=O)N[C@@H](Cc1c[nH]c3ccccc13)C(=O)N1CCC[C@H]1C(=O)N[C@@H](C)C(=O)N[C@@H](CCCNC(=N)N)C(=O)N2 [06-34-03-Ala1,6] (H-ACAWPARCAHQDLCA-NH2; linker 2-8-14 via TBMB)
potency / binding to kallikrein (in words): retained full potency compared to the parent

potency / binding to kallikrein (in words): reduction in potency
Structure (SMILES): CC(C)C[C@@H]1NC(=O)[C@H](CC(=O)O)NC(=O)[C@H](CCC(N)=O)NC(=O)[C@H](Cc2c[nH]cn2)NC(=O)CN(C)C(=O)[C@@H]2CSCc3cc(cc(c3)CSC[C@H](NC(=O)[C@H](C)N)C(=O)N(C)CC(=O)N[C@@H](Cc3c[nH]c4ccccc34)C(=O)N3CCC[C@H]3C(=O)N[C@@H](C)C(=O)N[C@@H](CCCNC(=N)N)C(=O)N2)CSC[C@@H](C(=O)N[C@@H](C)C(N)=O)NC1=O [06-34-03-N-MeGly1,6, ACN-MeGWPARC(N-MeG)HQDLCA] (H-AC[Sar]WPARC[Sar]HQDLCA-NH2; linker 2-8-14 via TBMB; N-terminus and C-terminus assumed)

Structure (SMILES): CC(C)C[C@@H]1NC(=O)[C@H](CC(=O)O)NC(=O)[C@H](CCC(N)=O)NC(=O)[C@H](Cc2c[nH]cn2)NC(=O)[C@H](CC(C)C)NC(=O)[C@@H]2CSCc3cc(cc(c3)CSC[C@H](NC(=O)[C@H](C)N)C(=O)N(C)[C@@H](CO)C(=O)N[C@@H](Cc3c[nH]c4ccccc34)C(=O)N3CCC[C@H]3C(=O)N[C@@H](C)C(=O)N[C@@H](CCCNC(=N)N)C(=O)N2)CSC[C@@H](C(=O)N[C@@H](C)C(N)=O)NC1=O [06-34-18-N-MeSer1] (H-AC[NMeS]WPARCLHQDLCA-NH2; linker 2-8-14 via TBMB)
Ki (Ki human PK (nM), Table 6): 0.56 nM

Ki (Table 24a, residue 6 modification in the context of Ac-(06-34-18), read-out: Ki (nM) Ac-(06-34-18)): 0.13 nM
Structure (SMILES): CC(=O)N[C@H]1CSCc2cc3cc(c2)CSC[C@H](NC(=O)[C@H](CCCNC(=N)N)NC(=O)[C@H](C)NC(=O)[C@@H]2CCCN2C(=O)[C@H](Cc2c[nH]c4ccccc24)NC(=O)[C@H](CO)NC1=O)C(=O)N[C@@H](C1CCCCC1)C(=O)N[C@@H](Cc1c[nH]cn1)C(=O)N[C@@H](CCC(N)=O)C(=O)N[C@@H](CC(=O)O)C(=O)N[C@@H](CC(C)C)C(=O)N[C@H](C(N)=O)CSC3 [Ac-(06-34-18) Chg6] (Ac-CSWPARC[Chg]HQDLC-NH2; linker 1-7-13 via TBMB)

Structure (SMILES): CC(=O)N[C@H]1CSCc2cc3cc(c2)CSC[C@H](NC(=O)[C@H](CCCNC(=N)N)NC(=O)[C@@H](C)NC(=O)[C@@H]2CCCN2C(=O)[C@H](Cc2c[nH]c4ccccc24)NC(=O)[C@H](CO)NC1=O)C(=O)N[C@@H](CC(C)C)C(=O)N[C@@H](Cc1c[nH]cn1)C(=O)N[C@@H](CCC(N)=O)C(=O)N[C@@H](CC(=O)O)C(=O)N[C@@H](CC(C)C)C(=O)N[C@H](C(N)=O)CSC3 [Ac-(06-34-18) D-Ala4]
reduction in potency/affinity compared to wildtype: 7000 fold

Ki [1]: 1040 nM | F (Kivar/KiWT) (Table 3c): 2469
Structure (SMILES): CC(=O)N[C@H]1CSCc2cc3cc(c2)CSC[C@H](NC(=O)[C@H](CCCNC(=N)N)NC(=O)[C@H](C)NC(=O)[C@@H]2CCCN2C(=O)[C@H](Cc2c[nH]c4ccccc24)NC(=O)[C@H](CO)NC1=O)C(=O)N[C@H](C)C(=O)N[C@@H](Cc1c[nH]cn1)C(=O)N[C@@H](CCC(N)=O)C(=O)N[C@@H](CC(=O)O)C(=O)N[C@@H](CC(C)C)C(=O)N[C@H](C(N)=O)CSC3 [Ac-(06-34-18) D-Ala6] (Ac-CSWPARC[dA]HQDLC-NH2; linker 1-7-13 via TBMB)

Ki [1]: 11.7 nM | F (Kivar/KiWT) (Table 3c): 28
Structure (SMILES): CC(=O)N[C@H]1CSCc2cc3cc(c2)CSC[C@H](NC(=O)[C@H](CCCNC(=N)N)NC(=O)[C@H](C)NC(=O)[C@@H]2CCCN2C(=O)[C@H](Cc2c[nH]c4ccccc24)NC(=O)[C@H](CO)NC1=O)C(=O)N[C@@H](CC(C)C)C(=O)N[C@@H](Cc1c[nH]cn1)C(=O)N[C@H](C)C(=O)N[C@@H](CC(=O)O)C(=O)N[C@@H](CC(C)C)C(=O)N[C@H](C(N)=O)CSC3 [Ac-(06-34-18) D-Ala8] (Ac-CSWPARCLH[dA]DLC-NH2; linker 1-7-13 via TBMB)

Ki [1]: 0.87 nM | F (Kivar/KiWT) (Table 3c): 2
Structure (SMILES): CC(=O)N[C@H]1CSCc2cc3cc(c2)CSC[C@H](NC(=O)[C@H](CCCNC(=N)N)NC(=O)[C@H](C)NC(=O)[C@@H]2CCCN2C(=O)[C@H](Cc2c[nH]c4ccccc24)NC(=O)[C@H](CO)NC1=O)C(=O)N[C@@H](CC(C)C)C(=O)N[C@@H](Cc1c[nH]cn1)C(=O)N[C@@H](CCC(N)=O)C(=O)N[C@H](C)C(=O)N[C@@H](CC(C)C)C(=O)N[C@H](C(N)=O)CSC3 [Ac-(06-34-18) D-Ala9] (Ac-CSWPARCLHQ[dA]LC-NH2; linker 1-7-13 via TBMB)

Structure (SMILES): CC(=O)N[C@H]1CSCc2cc3cc(c2)CSC[C@H](NC(=O)[C@@H](CCCNC(=N)N)NC(=O)[C@H](C)NC(=O)[C@@H]2CCCN2C(=O)[C@H](Cc2c[nH]c4ccccc24)NC(=O)[C@H](CO)NC1=O)C(=O)N[C@@H](CC(C)C)C(=O)N[C@@H](Cc1c[nH]cn1)C(=O)N[C@@H](CCC(N)=O)C(=O)N[C@@H](CC(=O)O)C(=O)N[C@@H](CC(C)C)C(=O)N[C@H](C(N)=O)CSC3 [Ac-(06-34-18) D-Arg5]
reduction in potency/affinity compared to wildtype: 300 fold

Structure (SMILES): CC(=O)N[C@H]1CSCc2cc3cc(c2)CSC[C@H](NC(=O)[C@H](CCCNC(=N)N)NC(=O)[C@H](C)NC(=O)[C@@H]2CCCN2C(=O)[C@@H](Cc2c[nH]c4ccccc24)NC(=O)[C@H](CO)NC1=O)C(=O)N[C@@H](CC(C)C)C(=O)N[C@@H](Cc1c[nH]cn1)C(=O)N[C@@H](CCC(N)=O)C(=O)N[C@@H](CC(=O)O)C(=O)N[C@@H](CC(C)C)C(=O)N[C@H](C(N)=O)CSC3 [Ac-(06-34-18) D-Trp2]
reduction in potency/affinity compared to wildtype: 45000 fold

Structure (SMILES): CC(=O)N[C@H]1CSCc2cc3cc(c2)CSC[C@H](NC(=O)[C@H](CCCNC(=N)N(C)C)NC(=O)[C@H](C)NC(=O)[C@@H]2CCCN2C(=O)[C@H](Cc2c[nH]c4ccccc24)NC(=O)[C@H](CO)NC1=O)C(=O)N[C@@H](CC(C)C)C(=O)N[C@@H](Cc1c[nH]cn1)C(=O)N[C@@H](CCC(N)=O)C(=O)N[C@@H](CC(=O)O)C(=O)N[C@@H](CC(C)C)C(=O)N[C@H](C(N)=O)CSC3 [Ac-(06-34-18) NDMA5]
Ki (Table 11, read-out: Ki (nM) (human kallikrein)): 510 nM

Ki [2]: 455 nM | F (Kivar/KiWT) (Table 24b): 1084
Structure (SMILES): CC(=O)N[C@H]1CSCc2cc3cc(c2)CSC[C@H](NC(=O)[C@H](CCCNC(=N)N)NC(=O)[C@H](Cc2ccc(O)cc2)NC(=O)[C@@H]2CCCN2C(=O)[C@H](Cc2ccccc2)NC(=O)[C@H](CO)NC1=O)C(=O)N[C@@H](CC(C)C)C(=O)N[C@@H](Cn1cncn1)C(=O)N[C@@H](CCC(N)=O)C(=O)N[C@@H](CC(=O)O)C(=O)N[C@@H](CC(C)C)C(=O)N[C@H](C(N)=O)CSC3 [Ac-(06-34-18) Phe2 Tyr4 1,2,4-TriAz7] (Ac-CSFPYRCL[X1]QDLC-NH2; linker 1-7-13 via TBMB)

Ki [2]: 53 nM | F (Kivar/KiWT) (Table 24b): 126
Structure (SMILES): CC(=O)N[C@H]1CSCc2cc3cc(c2)CSC[C@H](NC(=O)[C@H](CCCNC(=N)N)NC(=O)[C@H](Cc2ccc(O)cc2)NC(=O)[C@@H]2CCCN2C(=O)[C@H](Cc2ccccc2)NC(=O)[C@H](CO)NC1=O)C(=O)N[C@@H](CC(C)C)C(=O)N[C@@H](Cc1ccccn1)C(=O)N[C@@H](CCC(N)=O)C(=O)N[C@@H](CC(=O)O)C(=O)N[C@@H](CC(C)C)C(=O)N[C@H](C(N)=O)CSC3 [Ac-(06-34-18) Phe2 Tyr4 2Pal7] (Ac-CSFPYRCL[2Pal]QDLC-NH2; linker 1-7-13 via TBMB)

Ki [2]: 130 nM | F (Kivar/KiWT) (Table 24b): 308
Structure (SMILES): CC(=O)N[C@H]1CSCc2cc3cc(c2)CSC[C@H](NC(=O)[C@H](CCCNC(=N)N)NC(=O)[C@H](Cc2ccc(O)cc2)NC(=O)[C@@H]2CCCN2C(=O)[C@H](Cc2ccccc2)NC(=O)[C@H](CO)NC1=O)C(=O)N[C@@H](CC(C)C)C(=O)N[C@@H](Cc1cccnc1)C(=O)N[C@@H](CCC(N)=O)C(=O)N[C@@H](CC(=O)O)C(=O)N[C@@H](CC(C)C)C(=O)N[C@H](C(N)=O)CSC3 [Ac-(06-34-18) Phe2 Tyr4 3Pal7] (Ac-CSFPYRCL[3Pal]QDLC-NH2; linker 1-7-13 via TBMB)

F (Kivar/KiWT) (Table 24b): 39
Structure (SMILES): CC(=O)N[C@H]1CSCc2cc3cc(c2)CSC[C@H](NC(=O)[C@H](CCCNC(=N)N)NC(=O)[C@H](Cc2ccc(O)cc2)NC(=O)[C@@H]2CCCN2C(=O)[C@H](Cc2ccccc2)NC(=O)[C@H](CO)NC1=O)C(=O)N[C@@H](CC(C)C)C(=O)N[C@@H](Cc1ccco1)C(=O)N[C@@H](CCC(N)=O)C(=O)N[C@@H](CC(=O)O)C(=O)N[C@@H](CC(C)C)C(=O)N[C@H](C(N)=O)CSC3 [Ac-(06-34-18) Phe2 Tyr4 4FuAla7] (Ac-CSFPYRCL[Ala(2-furyl)]QDLC-NH2; linker 1-7-13 via TBMB)
